Assay results: ChEMBL document CHEMBL4342450, “Antitumor Activity of Ohmyungsamycin A through the Regulation of the Skp2-p27 Axis and MCM4 in Human Colorectal Cancer Cells” (J Nat Prod, 2020)
Active and inactive are the calls of the source. The calls are words filed in the database; no cut-off is given here. *1 amine or outer side, *2 acyl side, *3 side chain or, on linkers, in order; H or OH if unused. Where a SMILES comes first, the peptide text is derived from it. Bridges are numbered along the chain shown (N, C = ends). [ ]: non-standard residue; d: D form. Phe(3R-OH) = O=C([C@@H](N[*:1])[C@H](O[*:3])c1ccccc1)[*:2]; NMeTrp(4-OMe) = CN[C@@H](Cc1c[nH]c2cccc(OC)c12)C(=O)O; NMeT = CN[C@H](C(=O)O)[C@@H](C)O; NMeL = CN[C@@H](CC(C)C)C(=O)O; NMeV = CN[C@H](C(=O)O)C(C)C

Tests used:
[1] = tested on: HCT-116; assay: Downregulation of MCM4 gene expression in human HCT116 cells assessed as fold change at 15 uM incubated for 24 hrs by cDNA microarray analysis relative to control; format: functional
[2] = tested on: HCT-116; assay: Downregulation of MCM4 mRNA expression in human HCT116 cells after 12 hrs by RT-PCR method; format: functional, cell-based
[3] = tested on: HCT-116; assay: Decrease in cell cycle associated protein expression in human HCT116 cells assessed as reduction in CDK6 expression at 5 to 20 uM after 24 hrs by Western blot analysis; format: functional, cell-based
[4] = tested on: HCT-116; assay: Induction of cell cycle arrest in human HCT116 cells assessed as accumulation at sub-G1 phase at 20 uM incubated for 18 hrs by propidium iodide staining based flow cytometry (reference value: 0.9%); format: functional
[5] = tested on: Mus musculus; assay: In vivo modulation of Skp2-p27 axis in tumor of BALB/c mouse xenografted with human HCT116 cells assessed as upregulation of p27 mRNA level at 5 to 10 m/kg, ip administered thrice a week for 3.5 weeks by RT-PCR method; format: functional, organism-based
[6] = tested on: HCT-116; assay: Induction of cell cycle arrest in human HCT116 cells assessed as accumulation at S phase at 10 uM incubated for 24 hrs by propidium iodide staining based flow cytometry (reference value: 21.2%); format: functional
[7] = tested on: HCT-116; assay: Induction of apoptosis in human HCT116 cells assessed as reduction in uncleaved full length caspase 7 level after 24 hrs by Western blot analysis; format: functional, cell-based
[8] = tested on: HCT-116; assay: Induction of cell cycle arrest in human HCT116 cells assessed as accumulation at S phase at 20 uM incubated for 24 hrs by propidium iodide staining based flow cytometry (reference value: 21.2%); format: functional
[9] = tested on: HCT-116; assay: Downregulation of GINS2 gene expression in human HCT116 cells assessed as fold change at 15 uM incubated for 24 hrs by cDNA microarray analysis relative to control; format: functional
[10] = tested on: HCT-116; assay: Decrease in cell cycle associated protein expression in human HCT116 cells assessed as reduction in cyclin D1 expression at 5 to 20 uM after 24 hrs by Western blot analysis; format: functional, cell-based
[11] = tested on: HCT-116; assay: Effect on Skp1 expression in human HCT116 cells at 5 to 20 uM after 24 hrs by Western blot analysis; format: functional, cell-based
[12] = tested on: HCT-116; assay: Downregulation of cyclin E2 mRNA expression in human HCT116 cells after 12 hrs by RT-PCR method; format: functional, cell-based
[13] = tested on: HCT-116; assay: Induction of morphological changes in human HCT116 cells assessed as appearance of pin-point shape cells at 4 to 20 uM by inverted phase-contrast microscopic method; format: functional, cell-based
[14] = tested on: HCT-116; assay: Downregulation of INSIG1 gene expression in human HCT116 cells assessed as fold change at 15 uM incubated for 24 hrs by cDNA microarray analysis relative to control; format: functional
[15] = tested on: HCT-116; assay: Induction of cell cycle arrest in human HCT116 cells assessed as accumulation at G2/M phase at 5 uM incubated for 24 hrs by propidium iodide staining based flow cytometry (reference value: 15.7%); format: functional
[16] = tested on: HCT-116; assay: Decrease in cell cycle associated protein expression in human HCT116 cells assessed as reduction in CDK2 expression at 5 to 20 uM after 24 hrs by Western blot analysis; format: functional, cell-based
[17] = tested on: HCT-116; assay: Downregulation of KITLG gene expression in human HCT116 cells assessed as fold change at 15 uM incubated for 24 hrs by cDNA microarray analysis relative to control; format: functional
[18] = Toxicity in BALB/c nude mouse assessed as changes in body weight at 5 to 10 mg/kg, ip administered thrice a week for 3.5 weeks; format: organism-based; conditions: in vivo, 588 h
[19] = tested on: HCT-116; assay: Antitumor activity against human HCT116 cells xenografted in BALB/c nude mouse assessed as tumor weight at 10 mg/kg, ip administered thrice a week for 3.5 weeks measured on last day (reference value: 100%); format: functional
[20] = tested on: HCT-116; assay: Decrease in cell cycle associated protein expression in human HCT116 cells assessed as reduction in CDK4 expression at 5 to 20 uM after 24 hrs by Western blot analysis; format: functional, cell-based
[21] = tested on: HCT-116; assay: Induction of cell cycle arrest in human HCT116 cells assessed as accumulation at G2/M phase at 10 uM incubated for 24 hrs by propidium iodide staining based flow cytometry (reference value: 15.7%); format: functional
[22] = tested on: HCT-116; assay: Induction of apoptosis in human HCT116 cells assessed as reduction in survivin level at 5 to 20 uM after 24 hrs by Western blot analysis; format: functional, cell-based
[23] = tested on: HCT-116; assay: Downregulation of TMSB15A gene expression in human HCT116 cells assessed as fold change at 15 uM incubated for 24 hrs by cDNA microarray analysis relative to control; format: functional
[24] = tested on: HCT-116; assay: Downregulation of CCNE2 gene expression in human HCT116 cells assessed as fold change at 15 uM incubated for 24 hrs by cDNA microarray analysis relative to control; format: functional
[25] = tested on: HCT-116; assay: Downregulation of BMP4 gene expression in human HCT116 cells assessed as fold change at 15 uM incubated for 24 hrs by cDNA microarray analysis relative to control; format: functional
[26] = tested on: HCT-116; assay: Induction of cell cycle arrest in human HCT116 cells assessed as accumulation at G0/G1 phase at 10 uM incubated for 24 hrs by propidium iodide staining based flow cytometry (reference value: 54.7%); format: functional
[27] = tested on: HCT-116; assay: Induction of cell cycle arrest in human HCT116 cells assessed as accumulation at sub-G1 phase at 20 uM incubated for 24 hrs by propidium iodide staining based flow cytometry (reference value: 4.8%); format: functional
[28] = tested on: Mus musculus; assay: In vivo modulation of Skp2-p27 axis in tumor of BALB/c nude mouse xenografted with human HCT116 cells assessed as downregulation of Skp2 level at 5 to 10 m/kg, ip administered thrice a week for 3.5 weeks by Western blot analysis; format: functional, organism-based
[29] = tested on: MDA-MB-231; assay: Antiproliferative activity against human MDA-MB-231 cells after 72 hrs by sulforhodamine B assay; format: functional, cell-based; conditions: MDA-MB-231, 72 h
[30] = tested on: HCT-116; assay: Induction of cell cycle arrest in human HCT116 cells assessed as accumulation at S phase at 5 uM incubated for 24 hrs by propidium iodide staining based flow cytometry (reference value: 21.2%); format: functional
[31] = tested on: HCT-116; assay: Antitumor activity against human HCT116 cells xenografted in BALB/c nude mouse assessed as reduction in tumor volume at 5 to 10 mg/kg, ip administered thrice a week for 3.5 weeks and measured […] by caliper method; format: functional, organism-based
[32] = tested on: HCT-116; assay: Induction of cell cycle arrest in human HCT116 cells assessed as accumulation at G0/G1 phase at 5 uM incubated for 18 hrs by propidium iodide staining based flow cytometry (reference value: 43.3%); format: functional
[33] = tested on: MRC5; assay: Antiproliferative activity against human MRC5 cells after 72 hrs by sulforhodamine B assay; format: cell-based; conditions: MRC5, 72 h
[34] = tested on: HCT-116; assay: Modulation of Skp2-p27 Axis in human HCT116 cells assessed as reduction in Skp2 mRNA level at 5 to 20 uM after 12 hrs by real-time PCR method; format: functional, cell-based
[35] = tested on: SK-HEP1; assay: Antiproliferative activity against human SKHEP1 cells after 72 hrs by sulforhodamine B assay; format: functional, cell-based; conditions: SK-HEP1, 72 h
[36] = tested on: HCT-116; assay: Downregulation of CYP24A1 gene expression in human HCT116 cells assessed as fold change at 15 uM incubated for 24 hrs by cDNA microarray analysis relative to control; format: functional

**Q.** With `CN[C@H](C(=O)N[C@H](C(=O)N[C@@H]1C(=O)N(C)[C@@H]([C@@H](C)O)C(=O)N[C@@H](C(C)C)C(=O)N(C)[C@@H](CC(C)C)C(=O)N[C@@H](C(C)C)C(=O)N(C)[C@@H](C(C)C)C(=O)N(C)[C@@H](Cc2c[nH]c3cccc(OC)c23)C(=O)N[C@@H](C(C)C)C(=O)N[C@@H]([C@H](O)c2ccccc2)C(=O)N[C@@H](C(C)C)C(=O)O[C@@H]1C)C(C)C)C(C)C` (H-[NMeV]VT[NMeT]V[NMeL]V[NMeV][NMeTrp(4-OMe)]V[Phe(3R-OH)]V; ester 3-C) as the compound, how does the “fold change (FC)” value [1] read?
**A.** Its value is 6.074.

**Q.** And the inhibition [2]?
**A.** Its inhibition is “Dose-dependent effect”.

**Q.** What about the inhibition [3] of the same compound?
**A.** Its inhibition is “Active”.

**Q.** And the Activity [4]?
**A.** The Activity was 7.1%.

**Q.** What about the Activity [5] of the same compound?
**A.** The Activity was “Active”.

**Q.** And the Activity [6]?
**A.** Its Activity is 4.4%.

**Q.** And the Activity [7]?
**A.** Its Activity is “Dose-dependent effect”.

**Q.** And the Activity [8]?
**A.** Its Activity is 24.1%.

**Q.** And the “fold change (FC)” value [9]?
**A.** Its value is 7.45.

**Q.** What about the inhibition [10] of the same compound?
**A.** The inhibition was “Active”.

**Q.** What about the Activity [11] of the same compound?
**A.** Its Activity is “inactive”.

**Q.** And the inhibition [12]?
**A.** The inhibition was “Dose-dependent effect”.

**Q.** What about the Activity [13] of the same compound?
**A.** Its Activity is “Active”.

**Q.** What about the “fold change (FC)” value [14] of the same compound?
**A.** The value was 4.476.

**Q.** And the Activity [15]?
**A.** Its Activity is 12.5%.

**Q.** And the inhibition [16]?
**A.** Its inhibition is “Active”.

**Q.** And the “fold change (FC)” value [17]?
**A.** The value was 4.177.

**Q.** And the Activity [18]?
**A.** Its Activity is “Non-Toxic”.

**Q.** What about the Activity [19] of the same compound?
**A.** The Activity was 47.9%.

**Q.** What about the inhibition [20] of the same compound?
**A.** Its inhibition is “Active”.

**Q.** What about the Activity [21] of the same compound?
**A.** Its Activity is 16.1%.

**Q.** What about the Activity [22] of the same compound?
**A.** The Activity was “Active”.

**Q.** And the “fold change (FC)” value [23]?
**A.** The value was 6.779.

**Q.** What about the “fold change (FC)” value [24] of the same compound?
**A.** The value was 4.613.

**Q.** And the “fold change (FC)” value [25]?
**A.** The value was 4.773.

**Q.** What about the Activity [26] of the same compound?
**A.** The Activity was 62.7%.

**Q.** What about the Activity [27] of the same compound?
**A.** Its Activity is 31.4%.

**Q.** And the inhibition [28]?
**A.** Its inhibition is “Active”.

**Q.** What about the IC50 [29] of the same compound?
**A.** Its IC50 is 9.89 µM.

**Q.** What about the Activity [30] of the same compound?
**A.** The Activity was 5.6%.

**Q.** What about the Activity [31] of the same compound?
**A.** The Activity was “Active”.

**Q.** And the Activity [32]?
**A.** The Activity was 45.8%.

**Q.** What about the IC50 [33] of the same compound?
**A.** The IC50 was greater than 50 µM.

**Q.** What about the inhibition [34] of the same compound?
**A.** Its inhibition is “Active”.

**Q.** And the IC50 [35]?
**A.** The IC50 was 8.21 µM.

**Q.** And the “fold change (FC)” value [36]?
**A.** Its value is 18.5.
